Reference: patent US20210246109A1, “POTENT AND SELECTIVE INHIBITORS OF CYTOCHROME P450” (University of Kentucky Research Foundation, priority 2020, published 2021)
Like-named read-outs stand apart in the source and are kept apart here.

Experiments:
Type in all cases: cell-based
CYP1B1 = biological target: T1, CYP1B1 (Homo sapiens, UniProt Q16678); experiment: EROD assay in inducible CYP1B1 cell line
T1 construct: expressed in transfected cells
T1 sequence (Q16678 1-543): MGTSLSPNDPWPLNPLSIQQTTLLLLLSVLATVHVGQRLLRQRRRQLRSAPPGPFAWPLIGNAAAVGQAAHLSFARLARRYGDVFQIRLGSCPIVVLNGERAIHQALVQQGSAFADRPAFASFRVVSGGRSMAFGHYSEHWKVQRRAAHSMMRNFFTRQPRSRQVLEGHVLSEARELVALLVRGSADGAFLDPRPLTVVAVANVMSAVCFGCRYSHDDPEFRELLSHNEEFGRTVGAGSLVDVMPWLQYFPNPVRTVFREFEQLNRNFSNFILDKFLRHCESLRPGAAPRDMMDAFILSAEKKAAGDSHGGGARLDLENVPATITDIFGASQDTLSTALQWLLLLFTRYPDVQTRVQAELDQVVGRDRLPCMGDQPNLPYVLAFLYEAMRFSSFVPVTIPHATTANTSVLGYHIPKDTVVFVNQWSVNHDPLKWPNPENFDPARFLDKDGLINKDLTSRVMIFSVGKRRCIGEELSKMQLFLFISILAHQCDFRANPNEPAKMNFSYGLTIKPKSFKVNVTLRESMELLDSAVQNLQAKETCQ
Experimental: (§1) The activity of the inhibitors was assessed in a novel cell based assay generated for the purpose of this project. Enzymatic turnover of CYP1B1 was measured using the ethoxy-resorufin-O-deethylase (EROD) assay with the fluorescent substrate, resorufin ethyl ether. Cell lines were generated where the gene for CYP1B1 alone or CYP1B1 and cytochrome P450 reductase (CPR) were both under the control of an inducible promoter. A cell line was generated for counter screening where the gene for CYP1A1 was used. CYP1A1 is the closest family member to CYP1B1.

CYP1A1 = biological target: T2, CYP1A1 (Homo sapiens, UniProt P04798); experiment: EROD assay in CYP1A1 counter-screen cell line; conditions: for SI 1B1:1A1: selectivity index
T2 construct: expressed in transfected cells
T2 sequence (P04798 1-512): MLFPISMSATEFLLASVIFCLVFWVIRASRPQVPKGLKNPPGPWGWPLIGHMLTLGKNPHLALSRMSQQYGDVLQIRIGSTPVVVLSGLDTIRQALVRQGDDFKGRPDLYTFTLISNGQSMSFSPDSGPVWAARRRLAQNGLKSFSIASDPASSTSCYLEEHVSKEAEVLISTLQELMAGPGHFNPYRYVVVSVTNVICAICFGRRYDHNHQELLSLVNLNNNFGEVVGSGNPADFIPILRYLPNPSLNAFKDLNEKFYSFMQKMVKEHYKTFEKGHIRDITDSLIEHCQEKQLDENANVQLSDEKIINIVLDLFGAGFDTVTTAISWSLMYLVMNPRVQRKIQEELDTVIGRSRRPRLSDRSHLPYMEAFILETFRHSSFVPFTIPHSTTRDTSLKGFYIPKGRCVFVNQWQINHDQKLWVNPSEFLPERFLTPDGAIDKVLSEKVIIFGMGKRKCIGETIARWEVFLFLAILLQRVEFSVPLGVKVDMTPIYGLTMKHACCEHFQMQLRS
Experimental: as §1

HEK = experiment: Cytotoxicity, resazurin, 72 hours after compound addition
Experimental: Cytotoxicity was assessed at 72 hours after compound addition using resazurin. The compounds that function as selective 1B1 inhibitors had no effect on cell health. This is an essential feature for any chemopreventative agent or molecules intended to block the detrimental action of an enzyme.

[1] = Table 2, EROD assay, read-out: IC50 CYP1B1
[2] = Table 2, EROD assay, read-out: IC50 CYP1A1

IC50 (CYP1B1; Table 3, read-out: IC50 1B1) | IC50 (CYP1A1; Table 3, read-out: IC50 1A1) | Structure (SMILES) | other results
6.1 nM | – | [N-]=[N+]=NCCCOc1ccc(-c2nc3ccccc3c(=O)[nH]2)cc1 [GL627] | –
126 nM | – | N#CCOc1nc(-c2ccc(OCCCN=[N+]=[N-])cc2)nc2ccccc12 [GL628] | –
– | – | N#CCOc1ccc(-c2nc(-c3cccnc3)cs2)cc1 [GL641] | IC50 (CYP1B1; [1]): 0.381 nM; IC50 (CYP1A1; [2]): 2610 nM; SI 1B1:1A1 (CYP1A1): 6833
22 nM | 85 nM | O=c1[nH]c(-c2ccc(Cl)cc2)nc2ccccc12 [GL642] | –
0.1 nM | 125 nM | N#CCOc1nc(-c2ccc(Cl)cc2)nc2ccccc12 [GL643] | –
– | – | N#Cc1ccc(-c2csc(-c3ccc(O)cc3)n2)cc1 [GL649] | IC50 (CYP1B1; [1]): 931 nM; IC50 (CYP1A1; [2]): 16400 nM; SI 1B1:1A1 (CYP1A1): 17.6
2.8 nM | 1100 nM | O=c1[nH]c(-c2ccc3ccccc3n2)nc2ccccc12 [GL651] | –
19 nM | 1860 nM | N#CCOc1ccc(/C=C/c2ccc(COC#N)cc2COC#N)cc1 [GL652] | –
– | – | N#Cc1ccc(-c2csc(-c3cccnc3)n2)cc1 [GL656] | IC50 (CYP1B1; [1]): 391 nM
> 1000 nM | > 10000 nM | Cn1c(-c2ccc3ccccc3n2)nc2ccccc2c1=O [GL659] | –
– | – | C#CCOc1ccc(-c2nc(-c3ccc(C#N)cc3)cs2)cc1 [GL664] | IC50 (CYP1B1; [1]): 202 nM; IC50 (CYP1A1; [2]): 696 nM; SI 1B1:1A1 (CYP1A1): 3.44
– | – | Fc1ccc(-c2csc(-c3ccccn3)n2)cc1C(F)(F)F [GL666] | IC50 (CYP1B1; [1]): 83.8 nM; IC50 (CYP1A1; [2]): 240 nM; SI 1B1:1A1 (CYP1A1): 2.86
– | – | COc1ccc(-c2nc(-c3ccc(O)cc3)cs2)c(OC)c1 [GL673] | IC50 (CYP1B1; [1]): 101 nM
– | – | Oc1ccc(-c2nc(-c3ccc(F)c(C(F)(F)F)c3)cs2)cc1 [GL678] | IC50 (CYP1B1; [1]): 208 nM; IC50 (CYP1A1; [2]): 14700 nM; SI 1B1:1A1 (CYP1A1): 70.5
41 nM | 2300 nM | O=c1[nH]c(-c2ccc(F)c(C(F)(F)F)c2)nc2ccccc12 [GL-700] | –
– | 250 nM | N#CCOc1nc(-c2ccc(F)c(C(F)(F)F)c2)nc2ccccc12 [GL-701] | –
85 nM | 320 nM | Fc1ccc(-c2nc3ccccc3[nH]2)cc1C(F)(F)F [GL-706] | –
44 nM | 760 nM | c1ccc2nc(-c3nc4ccccc4[nH]3)ccc2c1 [GL-707] | –
550 nM | 3000 nM | COc1cc(C(=O)/C=C/c2ccc3ccccc3n2)cc(OC)c1OC [GL-713] | –
1100 nM | 5200 nM | COc1ccc(/C=C/C(=O)c2cc(OC)c(OC)c(OC)c2)c(OC)c1 [GL-714] | –
1900 nM | 3900 nM | Oc1nc(-c2ccc(F)cc2)nc2ccccc12 [GL-717] | –
850 nM | 15 nM | N#CCOc1nc(-c2ccc(F)cc2)nc2ccccc12 [GL-718] | –
3000 nM | 5200 nM | Fc1ccc(-c2nc3ccccc3[nH]2)cc1 [GL-719] | –
200 nM | – | O=c1[nH]c(-c2cccc(C(F)(F)F)c2)nc2ccccc12 [GL-728] | –
– | 50 nM | N#CCOc1nc(-c2cccc(C(F)(F)F)c2)nc2ccccc12 [GL-729] | –
– | – | COc1cc(/C=C/c2ccc(OC)cc2OC)cc(OC)c1 [TMS, reference compound] | IC50 (CYP1B1; Table 1, read-out: CYP1B1 IC50): 8.3 nM; IC50 (HEK; Table 1, 72 hours, resazurin, read-out: Cytotoxicity IC50): 10000 nM; IC50 (HEK; Table 3, HEK, read-out: HEK cytotoxicity): > 10000 nM

Structure (SMILES) | IC50 (CYP1B1; Table 3, read-out: IC50 1B1) | IC50 (CYP1A1; Table 3, read-out: IC50 1A1) | other results
N#CCOc1ccc(-c2nc(OCC#N)c3ccccc3n2)cc1 [GL- 561] | – | 3600 nM | –
